Patent US20260217701A1, “SELECTIVE BET INHIBITORS AND USES THEREOF” (Tay Therapeutics Limited, priority 2022, published 2026)
“And” between values parts separate entries of the source, which are not always exact repeats. Identical values can stand only once. Marks after values point to notes of the source that are not given here.

Legend:
[1] = CIA study: animal body weight; conditions: for Average animal body weight / Average animal body weight percent change: CIA; for Animal body weight percent change (%): individual animals
anti-collagen IgG1 = test: CIA model: rat anti-collagen IgG1 levels; assay type: in vivo, Lewis rats; design: Average rat anti-collagen IgG1 levels, Mean: unit not given here

For `Cn1cc(-c2ccccc2)c(-c2cn(C)c(=O)c3[nH]c(-c4cnn(C(F)(F)F)c4)cc23)cc1=O` [Compound A, 6-methyl-4-(1-methyl-2-oxo-5-phenyl-1,2-dihydropyridin-4-yl)-2-(1-(trifluoromethyl)-1H-pyrazol-4-yl)-1,6-dihydro-7H-pyrrolo[2,3-c]pyridin-7-one], the “Average animal body weight” value ([1]; Day 10, 1 mg/kg) was 170, the “Average animal body weight percent change” value ([1]; Day 10, 1 mg/kg) was 4.20% and the “Average animal body weight” value ([1]; Day 10, 3 mg/kg) was 168. For the same compound, the “Average animal body weight percent change” value ([1]; Day 10, 3 mg/kg) was 1.65%, the “Average animal body weight” value ([1]; Day 10, 10 mg/kg) was 164 and the “Average animal body weight percent change” value ([1]; Day 10, 10 mg/kg) was 0.89%. The “Animal body weight percent change (%)” value ([1]; Day 10, Group 5 (CIA + Compound A 1 mg/kg), 1 mg/kg) was 7.88% and −5.49% and 9.88% and 9.21% and 0.59% and 5.39% and 1.84%, the “Animal body weight percent change (%)” value ([1]; Day 10, Group 6 (CIA + Compound A 3 mg/kg), 3 mg/kg) was −3.57% and 0.58% and 1.14% and 1.80% and 0.60% and 2.45% and 6.37% and the “Average animal body weight” value ([1]; Day 11, 1 mg/kg) was 170. The “Average animal body weight percent change” value ([1]; Day 11, 1 mg/kg) was 4.25%, the “Average animal body weight” value ([1]; Day 11, 3 mg/kg) was 169 and the “Average animal body weight percent change” value ([1]; Day 11, 3 mg/kg) was 1.92%. For the same compound, the “Average animal body weight” value ([1]; Day 11, 10 mg/kg) was 165, the “Average animal body weight percent change” value ([1]; Day 11, 10 mg/kg) was 1.44% and the “Animal body weight percent change (%)” value ([1]; Day 11, Group 5 (CIA + Compound A 1 mg/kg), 1 mg/kg) was 9.09% and −4.27% and 9.88% and 6.58% and 0.59% and 4.79% and 2.45%. The “Animal body weight percent change (%)” value ([1]; Day 11, Group 6 (CIA + Compound A 3 mg/kg), 3 mg/kg) was −4.76% and 0.58% and 1.71% and 2.99% and −4.19% and 3.68% and 9.55%, the “Average animal body weight” value ([1]; Day 12, 1 mg/kg) was 171 and the “Average animal body weight percent change” value ([1]; Day 12, 1 mg/kg) was 4.85%. For the same compound, the “Average animal body weight” value ([1]; Day 12, 3 mg/kg) was 167, the “Average animal body weight percent change” value ([1]; Day 12, 3 mg/kg) was 0.97% and the “Average animal body weight” value ([1]; Day 12, 10 mg/kg) was 164. The “Average animal body weight percent change” value ([1]; Day 12, 10 mg/kg) was 1.36%, the “Animal body weight percent change (%)” value ([1]; Day 12, Group 5 (CIA + Compound A 1 mg/kg), 1 mg/kg) was 10.30% and −3.66% and 8.64% and 6.58% and 2.96% and 5.99% and 1.23% and the “Animal body weight percent change (%)” value ([1]; Day 12, Group 6 (CIA + Compound A 3 mg/kg), 3 mg/kg) was −5.95% and 2.92% and 2.86% and 0.00% and −5.39% and 3.68% and 9.55%. For the same compound, the “Average animal body weight” value ([1]; Day 13, 1 mg/kg) was 169, the “Average animal body weight percent change” value ([1]; Day 13, 1 mg/kg) was 3.78% and the “Average animal body weight” value ([1]; Day 13, 3 mg/kg) was 167. The “Average animal body weight percent change” value ([1]; Day 13, 3 mg/kg) was 0.88%, the “Average animal body weight” value ([1]; Day 13, 10 mg/kg) was 163 and the “Average animal body weight percent change” value ([1]; Day 13, 10 mg/kg) was 0.66%. The “Animal body weight percent change (%)” value ([1]; Day 13, Group 5 (CIA + Compound A 1 mg/kg), 1 mg/kg) was 9.09% and −3.66% and 10.49% and 5.26% and 2.96% and 2.99% and 1.23%, the “Animal body weight percent change (%)” value ([1]; Day 13, Group 6 (CIA + Compound A 3 mg/kg), 3 mg/kg) was −3.57% and 2.34% and −5.14% and 3.59% and −5.99% and 3.07% and 8.92% and the “Average animal body weight” value ([1]; Day 14, 1 mg/kg) was 170. The “Average animal body weight percent change” value ([1]; Day 14, 1 mg/kg) was 3.90%, the “Average animal body weight” value ([1]; Day 14, 3 mg/kg) was 167 and the “Average animal body weight percent change” value ([1]; Day 14, 3 mg/kg) was 0.99%. The “Average animal body weight” value ([1]; Day 14, 10 mg/kg) was 162, the “Average animal body weight percent change” value ([1]; Day 14, 10 mg/kg) was 0.03% and the “Animal body weight percent change (%)” value ([1]; Day 14, Group 5 (CIA + Compound A 1 mg/kg), 1 mg/kg) was 7.88% and −3.05% and 10.49% and 1.97% and 3.55% and 1.80% and 3.07%. The “Animal body weight percent change (%)” value ([1]; Day 14, Group 6 (CIA + Compound A 3 mg/kg), 3 mg/kg) was −2.98% and 3.51% and −2.86% and 4.79% and −6.59% and 2.45% and 8.28%, the “Average animal body weight” value ([1]; Day 15, 1 mg/kg) was 168 and the “Average animal body weight percent change” value ([1]; Day 15, 1 mg/kg) was 3.24%. For the same compound, the “Average animal body weight” value ([1]; Day 15, 3 mg/kg) was 166, the “Average animal body weight percent change” value ([1]; Day 15, 3 mg/kg) was 0.37% and the “Average animal body weight” value ([1]; Day 15, 10 mg/kg) was 162. For the same compound, the “Average animal body weight percent change” value ([1]; Day 15, 10 mg/kg) was 0.13%, the “Average animal body weight” value ([1]; Day 16, 1 mg/kg) was 167 and the “Average animal body weight percent change” value ([1]; Day 16, 1 mg/kg) was 2.62%. For the same compound, the “Average animal body weight” value ([1]; Day 16, 3 mg/kg) was 165, the “Average animal body weight percent change” value ([1]; Day 16, 3 mg/kg) was −0.37% and the “Average animal body weight” value ([1]; Day 16, 10 mg/kg) was 161. The “Average animal body weight percent change” value ([1]; Day 16, 10 mg/kg) was −0.57%, the “Average animal body weight” value ([1]; Day 17, 1 mg/kg) was 167 and the “Average animal body weight percent change” value ([1]; Day 17, 1 mg/kg) was 2.48%. For the same compound, the “Average animal body weight” value ([1]; Day 17, 3 mg/kg) was 163, the “Average animal body weight percent change” value ([1]; Day 17, 3 mg/kg) was −1.43% and the “Average animal body weight” value ([1]; Day 17, 10 mg/kg) was 161. The “Average animal body weight percent change” value ([1]; Day 17, 10 mg/kg) was −0.47%, the “Average animal body weight” value ([1]; Day 18, 1 mg/kg) was 167 and the “Average animal body weight percent change” value ([1]; Day 18, 1 mg/kg) was 2.38%. The “Average animal body weight” value ([1]; Day 18, 3 mg/kg) was 164, the “Average animal body weight percent change” value ([1]; Day 18, 3 mg/kg) was −1.11% and the “Average animal body weight” value ([1]; Day 18, 10 mg/kg) was 162. For the same compound, the “Average animal body weight percent change” value ([1]; Day 18, 10 mg/kg) was −0.29%, the “Average animal body weight” value ([1]; Day 19, 1 mg/kg) was 166 and the “Average animal body weight percent change” value ([1]; Day 19, 1 mg/kg) was 1.46%. For the same compound, the “Average animal body weight” value ([1]; Day 19, 3 mg/kg) was 163, the “Average animal body weight percent change” value ([1]; Day 19, 3 mg/kg) was −1.74% and the “Average animal body weight” value ([1]; Day 19, 10 mg/kg) was 161. For the same compound, the “Average animal body weight percent change” value ([1]; Day 19, 10 mg/kg) was −0.70%, the “Average animal body weight” value ([1]; Day 20, 1 mg/kg) was 166 and the “Average animal body weight percent change” value ([1]; Day 20, 1 mg/kg) was 1.92%. For the same compound, the “Average animal body weight” value ([1]; Day 20, 3 mg/kg) was 162, the “Average animal body weight percent change” value ([1]; Day 20, 3 mg/kg) was −2.24% and the “Average animal body weight” value ([1]; Day 20, 10 mg/kg) was 161. The “Average animal body weight percent change” value ([1]; Day 20, 10 mg/kg) was −0.54%, the “Average animal body weight” value ([1]; Day 21, 1 mg/kg) was 165 and the “Average animal body weight percent change” value ([1]; Day 21, 1 mg/kg) was 0.93%. The “Average animal body weight” value ([1]; Day 21, 3 mg/kg) was 162, the “Average animal body weight percent change” value ([1]; Day 21, 3 mg/kg) was −1.78% and the “Average animal body weight” value ([1]; Day 21, 10 mg/kg) was 161. The “Average animal body weight percent change” value ([1]; Day 21, 10 mg/kg) was −0.75%, the “Average rat anti-collagen IgG1 levels, Mean” value (anti-collagen IgG1; Group 5 (CIA + Compound A 1 mg/kg)) was 1180.61** and the “Average rat anti-collagen IgG1 levels, Mean” value (anti-collagen IgG1; Group 6 (CIA + Compound A 3 mg/kg)) was 569.60**. For the same compound, the “Average rat anti-collagen IgG1 levels, Mean” value (anti-collagen IgG1; Group 7 (CIA + Compound A 10 mg/kg)) was 220.15** and the “Inhibition of IgG1” value (anti-collagen IgG1; all three doses) was “near complete inhibition of IgG1”.
